# Experiments:
# [1] = molecular target: T1, [NEK7]-[compound of formula (I)]-[CRBN/DDB1] complex (Homo sapiens, UniProt Q8TDX7+Q96SW2); experiment: AlphaLISA dose response ternary complex formation assay; type: binding; conditions: 1 μM compound, normalized to maximum signal of Compound 2 (positive control) and DMSO background; for activation at 1 µM: read-out: Normalized AlphaLISA ternary complex average signal at 1 μM molecule
# In short: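 Biotinylated NEK7 (200 nM) on streptavidin donor beads and 6×His-CRBN/Strep-DDB1 (200 nM) on anti-His acceptor beads, each at 40 μg/ml and preincubated 30 min, then mixed and added to compound in HBS pH 7.4, 0.1% Tween-20, 1 mM DTT, 2% DMSO. After 30 min at 25 °C, AlphaLISA signal was read (ex 680/em 615 nm) and normalised to DMSO background and maximal Compound 2 signal.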
# [2] = molecular target: T1, [NEK7]-[compound of formula (I)]-[CRBN/DDB1] complex; experiment: HTRF ternary complex assay; type: binding; conditions: dose-response, 180 min at 25° C.; read-out: HTRF ternary complex Average pEC50 by molecule (converted)
# In short: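 Mix of 24 nM NEK7, 52.8 nM 6×His-CRBN/Strep-DDB1, 3 nM streptavidin-Eu cryptate and 6.67 nM anti-6×His-d2 in PPI Europium detection buffer with 1 mM DTT, dose-response compound, 0.5% DMSO, 180 min at 25° C. TR-FRET (665/620) read, normalized to DMSO background, Hill-slope fit gave EC50/pEC50.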
# [3] = molecular target: NEK7-HiBiT protein (Homo sapiens, UniProt Q8TDX7); experiment: NEK7-HiBiT degradation assay (Nano-Glo HiBiT Lytic Assay) in HEK293 NEK7-HiBiT cells; type: cell-based; conditions: 24 h, conc. 0.1, 1 and 10 μM tested, concentration of the table values not stated, mean of 3 technical replicates
# NEK7-HiBiT protein, sequence (Q8TDX7 whole entry): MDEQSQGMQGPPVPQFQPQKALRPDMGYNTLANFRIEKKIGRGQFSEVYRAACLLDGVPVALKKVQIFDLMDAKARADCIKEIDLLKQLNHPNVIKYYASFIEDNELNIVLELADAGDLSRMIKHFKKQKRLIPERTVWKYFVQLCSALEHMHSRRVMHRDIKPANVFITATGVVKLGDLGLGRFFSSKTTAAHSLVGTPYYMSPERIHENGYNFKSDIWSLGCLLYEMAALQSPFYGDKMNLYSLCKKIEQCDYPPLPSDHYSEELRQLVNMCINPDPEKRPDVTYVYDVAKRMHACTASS
# NEK7-HiBiT protein, sequence (Q96SW2 whole entry, further chain): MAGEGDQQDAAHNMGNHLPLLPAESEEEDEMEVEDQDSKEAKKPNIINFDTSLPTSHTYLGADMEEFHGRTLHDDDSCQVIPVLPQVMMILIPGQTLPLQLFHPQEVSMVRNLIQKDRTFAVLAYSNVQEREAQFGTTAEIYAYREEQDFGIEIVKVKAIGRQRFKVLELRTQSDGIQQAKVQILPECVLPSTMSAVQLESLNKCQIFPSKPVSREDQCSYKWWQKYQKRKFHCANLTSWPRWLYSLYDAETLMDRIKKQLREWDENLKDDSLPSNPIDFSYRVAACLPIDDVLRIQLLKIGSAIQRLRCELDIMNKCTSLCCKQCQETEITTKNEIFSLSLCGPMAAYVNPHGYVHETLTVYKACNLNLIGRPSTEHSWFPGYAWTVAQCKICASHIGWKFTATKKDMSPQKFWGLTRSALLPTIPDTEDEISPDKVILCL
# NEK7-HiBiT protein, sequence (Q16531 whole entry partner): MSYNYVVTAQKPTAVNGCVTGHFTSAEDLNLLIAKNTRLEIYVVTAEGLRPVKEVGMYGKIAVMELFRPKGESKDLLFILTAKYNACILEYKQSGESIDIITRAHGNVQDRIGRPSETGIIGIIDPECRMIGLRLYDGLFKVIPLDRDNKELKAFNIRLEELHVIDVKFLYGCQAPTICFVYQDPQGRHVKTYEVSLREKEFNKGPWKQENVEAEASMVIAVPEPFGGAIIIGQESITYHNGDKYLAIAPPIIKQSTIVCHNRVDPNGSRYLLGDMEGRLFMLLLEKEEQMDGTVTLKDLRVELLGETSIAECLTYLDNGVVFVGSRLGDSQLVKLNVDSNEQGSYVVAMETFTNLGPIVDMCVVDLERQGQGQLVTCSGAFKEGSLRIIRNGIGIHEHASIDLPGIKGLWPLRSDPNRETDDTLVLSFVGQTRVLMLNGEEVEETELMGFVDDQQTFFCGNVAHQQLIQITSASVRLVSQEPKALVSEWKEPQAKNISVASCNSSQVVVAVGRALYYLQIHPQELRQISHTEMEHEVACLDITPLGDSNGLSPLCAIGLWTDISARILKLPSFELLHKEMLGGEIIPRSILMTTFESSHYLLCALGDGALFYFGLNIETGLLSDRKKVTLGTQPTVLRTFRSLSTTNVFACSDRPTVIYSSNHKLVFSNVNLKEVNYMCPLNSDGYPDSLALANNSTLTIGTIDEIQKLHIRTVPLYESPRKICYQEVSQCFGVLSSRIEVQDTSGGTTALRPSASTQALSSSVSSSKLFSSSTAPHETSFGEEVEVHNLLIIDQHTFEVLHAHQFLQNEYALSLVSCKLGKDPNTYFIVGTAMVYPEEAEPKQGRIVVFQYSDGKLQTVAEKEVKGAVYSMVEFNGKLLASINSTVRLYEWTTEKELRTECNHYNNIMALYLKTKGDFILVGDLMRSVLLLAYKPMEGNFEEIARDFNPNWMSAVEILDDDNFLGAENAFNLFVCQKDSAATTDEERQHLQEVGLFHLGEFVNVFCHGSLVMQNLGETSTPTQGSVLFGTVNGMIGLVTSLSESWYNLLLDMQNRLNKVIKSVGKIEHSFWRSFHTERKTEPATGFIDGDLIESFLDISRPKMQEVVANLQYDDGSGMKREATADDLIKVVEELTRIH
# In short: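 HEK293 cells with CRISPR knock-in N-terminal HiBiT-tagged NEK7 exposed to compound for 24 h at 37 °C, 5% CO2. Residual NEK7-HiBiT was read as Nano-Glo HiBiT lytic luminescence and expressed as % of DMSO control across triplicates; compounds run at 0.1, 1 and 10 μM.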
# T1 sequence (Q8TDX7 whole entry): as the sequence (Q8TDX7 whole entry) above
# T1 sequence (Q96SW2 whole entry): as the sequence (Q96SW2 whole entry, further chain) above
# T1 sequence (Q16531 whole entry partner): as the sequence (Q16531 whole entry partner) above
SMILES,activation at 1 µM [1] [%],EC50 [2] [µM],Levels of NEK7-HiBiT Protein (as a % of DMSO control) [3],Normalized AlphaLISA ternary complex average signal at 1 μM molecule [1]
"CN1CCNC(c2ccc3c(c2)CN(C2CCC(=O)NC2=O)C3=O)C1 (stereo not drawn) [Compound 67, 3-(5-(4-methylpiperazin-2-yl)-1-oxoisoindolin-2-yl)piperidine-2,6-dione]",10 to 20,> 3.16,B (Levels of NEK7-HiBiT Protein > 25% and ≤50%),–
"CCCCC1CCC(c2ccc3c(c2)CN(C2CCC(=O)NC2=O)C3=O)OC1 (single isomer, unassigned) [70 Isomer 2, 3-(5-(5-butyltetrahydro-2H-pyran-2-yl)-1-oxoisoindolin-2-yl)piperidine-2,6-dione]",–,1 to 3.16,B (Levels of NEK7-HiBiT Protein > 25% and ≤50%),A (Normalized activity > 80%)
"O=C1CCC(N2Cc3cc(C4CCCCO4)sc3C2=O)C(=O)N1 (stereo not drawn) [Compound 73, 3-(6-oxo-2-(tetrahydro-2H-pyran-2-yl)-4,6-dihydro-5H-thieno[2,3-c]pyrrol-5-yl)piperidine-2,6-dione]",< 10,> 3.16,D (Levels of NEK7-HiBiT Protein ≥ 75%),–
"Cc1cc2c(cc1C1CCCCN1)CN(C1CCC(=O)NC1=O)C2=O (stereo not drawn) [Compound 20, 3-(6-methyl-1-oxo-5-(piperidin-2-yl)isoindolin-2-yl)piperidine-2,6-dione]",< 10,> 3.16,D (Levels of NEK7-HiBiT Protein ≥ 75%),–
"O=C1CCC(N2Cc3cc(C4CCC(NC(=O)c5ccccc5)CN4)ccc3C2=O)C(=O)N1 (stereo not drawn) [Compound 56, N-(6-(2-(2,6-dioxopiperidin-3-yl)-1-oxoisoindolin-5-yl)piperidin-3-yl)benzamide]",> 80,< 0.1,A (Levels of NEK7-HiBiT Protein ≤ 25%),–
"O=C1CCC(N2Cc3cc(C4COCCO4)ccc3C2=O)C(=O)N1 (stereo not drawn) [Compound 68, 3-(5-(1,4-dioxan-2-yl)-1-oxoisoindolin-2-yl)piperidine-2,6-dione]",10 to 20,0.316 to 1,D (Levels of NEK7-HiBiT Protein ≥ 75%),–
"O=C1CCC(N2Cc3cc([C@@H]4CCCCN4)ccc3C2=O)C(=O)N1 (stereo partly drawn) [Compound 10, 3-(1-oxo-5-((S)-piperidin-2-yl)isoindolin-2-yl)piperidine-2,6-dione]",10 to 20,0.316 to 1,C (Levels of NEK7-HiBiT Protein > 50% and <75%),–

# From patent publication US20260151403A1, “NEK7 DEGRADERS AND METHODS OF USE THEREOF” (Captor Therapeutics S.A., priority 2022, published 2026)
